According to patent US12653805B2, “Targeting LASP1, eIF4A1, eIF4B and CXC4 with modulators and combinations thereof for cancer therapy” (The University of Toledo, priority 2019, dated 2026):

Assays:
[1] = test system: BCSCs; settings: cited from earlier work
[2] = test system: triple-negative breast cancer (TNBC) cells; experiment: Cell viability studies with CAST compounds; assay type: cell-based; settings: for concentration level at which efficacy on tumor cell viability was shown: TNBC cell viability
[3] = test system: eIF4F complex in 231S cells; experiment: m7GTP pulldown assay (eIF4F complex); assay type: cell-based, human
Protocol: 231S cells were serum starved for 1 h and cells were stimulated (and prepared) as described in the co-immunoprecipitation section. 100 nM AMD3465 (CXCR4 antagonist, Sigma-Aldrich, St. Louis, Mo., Cat. No. SML1433-5MG) was incubated 30 min prior to stimulation. 1 mg of total protein lysate in 1 mL of Co-IP buffer was incubated with 25 μL of m7-GTP agarose beads overnight at 4° C. (Jena Biosciences, Jena, Germany, Cat. No. AC-155S). Following incubation, beads were washed with Co-IP buffer. Protein was eluted and analyzed by SDS-PAGE and Western blotting.

[4] = test system: CXCR4 signaling in 231S cells; experiment: Western blotting of phosphorylation of eIF4B, PDCD4, 4E-BP1 after CXCR4 activation; assay type: cell-based, human
Protocol: Cell lysates were prepared and quantified as described. Western blots were incubated with the following 1° Abs: Cyclin D1 (Cell Signaling Technology, Danvers, Mass., Cat. No. 2922), eIF4A C32B4 (Cell Signaling Technology, Danvers, Mass., Cat. No. 2013), eIF4B 1F5 (Cell Signaling Technology, Danvers, Mass., Cat. No. 13088), p-eIF4B S422 (Thermo Scientific, Rockford, Ill., Cat No. PA5-38362), eIF4E C46H6 (Cell Signaling Technology, Danvers, Mass., Cat. No. 2067), eIF4G C45A4 (Cell Signaling Technology, Danvers, Mass., Cat. No. 2469), GST 26H1 (Cell Signaling Technology, Danvers, Mass., Cat. No. 2624), LASP1 8C6 (Biolegend, San Diego, Calif., Cat. No. 909301), MDM2 SMP14 (Santa Cruz Biotechnology, Dallas, Tex., Cat. No. sc-965), PDCD4 D29C6 (Cell Signaling Technology, Danvers, Mass., Cat. No. 9535), p-PDCD4 S67 (Sigma-Aldrich, St. Louis, Mo., Cat. No. P0072), ROCK1 C8F7 (Cell Signaling Technology, Danvers, Mass., Cat. No. 4035), survivin 71G4B7 (Cell Signaling Technology, Danvers, Mass., Cat. No. 2808), 4E-BP1 53H11 (Cell Signaling Technology, Danvers, Mass., Cat. No. 9644), p-4E-BP1 Thr70 (Cell Signaling Technology, Danvers, Mass., Cat. No. 9455), and β-tubulin D66 (Sigma/Aldrich, St. Louis, Mo., Cat. No. T0198). Following primary incubation, Western blots were incubated with Goat anti-Mouse IgG (H+L) Superclonal™ Secondary Ab conjugated to HRP (Thermo Scientific, Rockford, Ill., Cat No. A28177) or Goat anti-Rabbit IgG (H+L) Superclonal™ Secondary Ab conjugated to HRP (Thermo Scientific, Rockford, Ill., Cat No. A27036). Finally, blots were developed with Amersham™ ECL™ Prime Western Blotting Detection Reagent (GE Healthcare Life Sciences, Pittsburgh, Pa., Cat. No. RPN2232) and HyBlot ES™ Autoradiography Film (Denville Scientific, Swedesboro, N.J., Cat. No. E3212). Densitometry of the Western blots was performed using ImageJ. Calculation of fold change is given in the figure legend for each experiment.

[5] = test system: LASP1-eIF4A interaction in 231S cells; experiment: Proximity ligation assay (PLA) of LASP1-eIF4A interaction; assay type: cell-based, human; settings: 100 nM AMD3465 30 min prior to 20 nM CXCL12 5 min
Protocol: The Duolink In Situ Orange Fluorescent kit (Sigma/Aldrich, St. Louis, Mo., Cat. No. DUO92102-1KT) was employed to detect the endogenous interaction between LASP1 and eIF4A in situ in 231S cells. The PLA was performed according to the manufacturer's instructions using a rabbit eIF4A1 antibody (Cohesion Biosciences, London, Purley, Cat. No. CQA1180) and a mouse LASP1 antibody (Biolegend, San Diego, Calif., Cat. No. 909301). The single Ab control condition represents the PLA reaction with only the LASP1 antibody. In addition, cells were stained with phalloidin (Life Technologies, Carlsbad, Calif., Cat. No. A12379) and nuclei with DRAQ5 (Thermo Scientific, Rockford, Ill., Cat No. 62251). Cells were stimulated and inhibited as described. Moreover, cells were fixed, stained, and permeabilized with standard methods. The images were acquired by two-photon confocal microscopy and processed with Leica Application Suite X software (Leica, Wetzlar, Germany). Quantification of the interaction dots was performed using ImageJ.

[6] = target: T1, eIF4A1 (Homo sapiens, UniProt P60842); assay type: cell-based; settings: 3 different TNBC cell lines
T1 construct: A GQ-5′-UTR dual reporter was created in breast cancer cell lines; endogenous in cells
T1 sequence (P60842 whole entry): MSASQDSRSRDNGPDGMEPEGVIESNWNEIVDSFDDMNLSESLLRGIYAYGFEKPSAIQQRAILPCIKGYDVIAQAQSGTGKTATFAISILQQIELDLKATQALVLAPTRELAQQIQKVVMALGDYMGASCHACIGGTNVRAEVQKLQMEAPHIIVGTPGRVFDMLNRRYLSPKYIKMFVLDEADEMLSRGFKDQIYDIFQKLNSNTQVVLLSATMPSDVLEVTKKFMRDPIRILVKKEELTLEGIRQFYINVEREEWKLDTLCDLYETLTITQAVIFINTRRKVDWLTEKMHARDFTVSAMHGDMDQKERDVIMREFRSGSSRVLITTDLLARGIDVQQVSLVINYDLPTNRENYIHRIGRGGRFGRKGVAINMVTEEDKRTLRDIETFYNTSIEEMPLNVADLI
Text: A GQ-5′-UTR dual reporter was created in breast cancer cell lines which would report either a reduction in td-Tomato fluorescence or luciferase activity if eIF4A1 is inhibited by any of the compounds in the Prestwick library (FIGS. 26A-26B).

[7] = test system: SUM-159-PT TNBC cells; experiment: Evaluation of paclitaxel-resistant SUM-159-PT cells; assay type: cell-based, human
Protocol: (§1) Briefly, to assess the cell viability, 3×10^3 cells/well (SUM-159PT, SUM Pac 200 nM, MDA-Bone-Un eIF4A CC and KO) were seeded and the cells were allowed to attach and spread overnight under adherent or non-adherent low attachment conditions.

[8] = test system: paclitaxel-resistant SUM-159PT cells; experiment: Chemosensitivity to paclitaxel of CRISPR control and eIF4A1-KO cells derived from paclitaxel-resistant SUM-159PT (CellTiter-Glo); assay type: cell-based, human; settings: 48 h; for IC50: Homo sapiens, SUM-159-PT
Protocol: as §1
For generation of CRISPR/Cas9-mediated eIF4A1 knockout (KO), a set of CRISPR/Cas9 plasmids (Santa Cruz, Dallas, Tex., Cat. #—sc-402623) were transfected into therapy-naïve and paclitaxel-resistant tumor cells using UltraCruz reagent (Santa Cruz, Dallas, Tex., Cat. #— sc-395739) following the manufacturer's instructions. After 24 h, the supernatant was removed and replaced with regular media and cells were further cultured for a total of 72 h. eIF4A1 KO cells were sorted out based on the expression of green fluorescent protein (GFP). Single KO cells were isolated by limiting dilution in 96-well plates. The KO was verified by immunoblotting for eIF4A. Non-targeting CRISPR/Cas9 plasmids were employed to obtain the CRISPR-control cells (Santa Cruz, Dallas, Tex., Cat. #—sc-418922).

[9] = test system: SUM-159PT cells; experiment: Immunoblotting of SUM-159PT cells after chronic paclitaxel treatment (Pac 200)
[10] = Pac 200 vs therapy naïve SUM-159PT
[11] = paclitaxel-resistant vs therapy-naïve SUM-159-PT

In the case of `O=C(O)C(Cc1ccccc1[N+](=O)[O-])=NNc1nc(-c2ccc(Cl)c(Cl)c2)cs1` (mixture of isomers) [4EGI-1], the “NANOG, OCT4 levels” value ([1]; 4EGI-1 treated BCSCs) is listed as “downregulated” and the “proliferation of BCSCs” value [1] is listed as “effectively inhibited”.

Work on `O=C(N/C(=C/c1cccnc1)c1nc2ccccc2[nH]1)c1cccc(Br)c1` [AE-848/14270010] yielded a cytotoxicity at 50 µM ([2]; CRISPR/control cells, lowest concentration of 50 μM, read-out: loss of viability of TNBC cells) of ~35%, a viability at 50 µM ([2]; LASP1-knockout cells, 50 μM) of 50% and a loss of viability ([2]; LASP1 genetically knocked out) of 50%. For the same compound, the “concentration level at which efficacy on tumor cell viability was shown” value [2] was 50 µM and the cell viability change ([2]; eIF4A1 knocked out cells) was “gain in viability”.

For `c1ccc(CNCc2ccc(CN3CCCNCCNCCCNCC3)cc2)nc1` [AMD3465], the “effect on peak eIF4G recruitment at 5 min of CXCL12” value ([3]; 100 nM AMD3465) was “reduced”, the “effect on CXCL12-dependent recruitment of LASP1 at 5 min” value ([3]; pre-treatment 100 nM AMD3465) was “abrogated” and the “effect on CXCL12-induced increase in p-eIF4B levels at 10 min” value ([4]; AMD3465) was “abrogated”. The “effect on CXCL12-induced increase in pT70-4E-BP1 levels” value ([4]; AMD3465) was “abrogated”, the “effect on CXCL12-induced increase in pS67-PDCD4 level at 5 min” value ([4]; AMD3465 pretreatment) was “abrogated” and the “LASP1-eIF4A interaction dots (interactions/cell)” value [5] was 13.3±10.2 dots.

With `Clc1ccccc1COc1ccc2ccccc2c1CNCc1cccnc1` [AN-465/41673523] the “concentration level at which efficacy on tumor cell viability was shown” value [2] was 75 µM.

For `C[C@]12CC[C@H](O)C[C@H]1CC[C@@H]1[C@@H]2CC[C@]2(C)[C@@H](C3=CC(=O)OC3)CC[C@]12O` [digitoxigenin], the “activity of eIF4A1” value [6] was “potently inhibited”.

In the case of `COc1cccc2c1C(=O)c1c(O)c3c(c(O)c1C2=O)C[C@@](O)(C(=O)CO)C[C@@H]3O[C@H]1C[C@H](N)[C@H](O)[C@H](C)O1` [doxorubicin], the “cross-resistance of paclitaxel-resistant cells” value ([7]; paclitaxel-resistant SUM-159-PT cells) is reported as “cross-resistant”.

In the case of `CC(=O)O[C@H]1C[C@H](O[C@H]2[C@@H](O)C[C@H](O[C@H]3[C@@H](O)C[C@H](O[C@H]4CC[C@@]5(C)[C@H](CC[C@@H]6[C@@H]5C[C@@H](O)[C@]5(C)[C@@H](C7=CC(=O)OC7)CC[C@]65O)C4)O[C@@H]3C)O[C@@H]2C)O[C@H](C)[C@H]1O[C@@H]1O[C@H](CO)[C@@H](O)[C@H](O)[C@H]1O` [lanotoside C], the “activity of eIF4A1” value [6] is reported as “potently inhibited”.

For `CC(=O)O[C@H]1C(=O)[C@@]2(C)[C@H]([C@H](OC(=O)c3ccccc3)[C@]3(O)C[C@H](OC(=O)[C@H](O)[C@@H](NC(=O)c4ccccc4)c4ccccc4)C(C)=C1C3(C)C)[C@]1(OC(C)=O)CO[C@@H]1C[C@@H]2O` [paclitaxel], the IC50 ([7]; Homo sapiens, SUM-159-PT, parental SUM-159-PT cells, paclitaxel) was 2 nM, the resistance factor ([7]; paclitaxel-resistant vs parental SUM-159-PT) was 675.5 fold and the IC50 ([8]; CRISPR-control SUM-159PT cells (from Pac 200)) was 904 nM. The IC50 ([8]; eIF4A1-KO cells (from Pac 200)) was 609 nM, the “change in IC50, eIF4A1-KO vs CRISPR-control” value ([8]; paclitaxel) was −1.5 fold and the “enhanced expression of Cyclin D3” value [9, 10] was 2.7 fold. The “enhanced expression of NANOG” value [9, 10] was 1.4 fold, the “enhanced expression of OCT4” value [9, 10] was 3 fold and the “enhanced expression of SOX2” value [9, 10] was 2.7 fold. The “enhanced expression of survivin or BIRC5” value [9, 10] was 4 fold, the “increase in ABCB1 (P-glycoprotein, MDR1) protein level” value [9, 10] was 10.8 fold and the “increase in ABCG2 (BCRP) protein level” value [9, 10] was 2.4 fold. The “increase in ALDH1A1 level” value [9, 10] was 2.4 fold, the “increase in CD44 level” value [9, 10] was 6.1 fold and the “increase in expression of eIF4A” value [9, 10] was 25.8 fold. The “enhanced expression of ROCK1” value ([9]; Pac 200 vs therapy naïve SUM-159PT, not statistically significant) was 1.5 fold, the “expression of E-cadherin” value [9, 11] was “decreasing trend” and the “increase in Snail1 protein level” value [9, 11] was 2 fold. For the same compound, the “increase in ABCB1 protein level, independent verification” value ([9]; three biological replicates, p<0.0001) was 14 fold and the “increase in ABCG2 protein level, independent verification” value ([9]; three biological replicates, p<0.001) was 4 fold.
